Here are results for 10 compounds from patent US20260109707A1, “HETEROBIFUNCTIONAL COMPOUNDS AND METHODS OF TREATING DISEASE” (Halda Therapeutics OpCo. Inc., priority 2022, published 2026).

The test system of assay [1] is T-Rex 293 cell line SC3 cells having increased expression of androgen receptor protein due to exposure to doxycycline. In words: Cellular growth inhibition assay, T-Rex 293 SC3 cells with doxycycline (CellTiter-Glo, 72 hours). The format is cell-based. The conditions noted are these: 72 h, T-Rex 293 SC3 cells with increased androgen receptor expression due to doxycycline (10 ng/mL). The gist of the method:
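Growth inhibition is measured in an inducible AR-expressing T-Rex 293 clone, SC3, cultured with or without 10 ng/mL doxycycline in hormone-depleted medium. Test compounds are applied for 72 hours. GI50 values derive from CellTiter-Glo 2.0 signal fitted by four-parameter regression.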
(In general: Cellular ATP, detected with luciferase, serves as a proxy for viable cell number.)

In assay [2] the target is T1, progesterone receptor (Homo sapiens, UniProt P06401).
T1 sequence (P06401 679-933 limits assumed): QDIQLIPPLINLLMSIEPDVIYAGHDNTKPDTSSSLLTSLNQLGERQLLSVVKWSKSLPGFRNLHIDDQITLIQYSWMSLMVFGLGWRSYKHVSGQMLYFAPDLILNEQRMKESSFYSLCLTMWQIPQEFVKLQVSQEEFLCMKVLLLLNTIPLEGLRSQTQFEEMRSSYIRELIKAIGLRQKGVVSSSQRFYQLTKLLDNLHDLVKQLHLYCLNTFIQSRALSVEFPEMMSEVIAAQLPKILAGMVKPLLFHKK
In words: PR Human Progesterone NHR Binding (Agonist Radioligand) Assay. The conditions noted are these: binding to the progesterone receptor, cytosolic fractions of T47D cells, Table 12. As to the method: Compounds were tested using the PR Human Progesterone NHR Binding (Agonist Radioligand) Assay, Cerep at Eurofins Discovery using a modified version of the protocol from Sarup et al. (Cancer Res 1988; 48:5071-5078). Briefly, cytosolic fractions of T47D cells were incubated with 0.5 nM [^3H]progesterone for 1 hour at 4° C. in the absence or presence of the test compound. Nonspecific binding was determined in the presence of 1 μM promegestone. Reactions were subjected to scintillation counting. Results are expressed as a percent inhibition of the control radioligand specific binding.

Assay [3] deals with T2, BRD4-BD2 (Homo sapiens, UniProt O60885).
T2 construct: made in house; host or cells: T7 phage grown in an E. coli host derived from the BL21 strain
In words: bromoKdELECT assay for binding affinity to BRD4-BD2. The conditions noted are these: binding to BRD4-BD2, Table 5. As for the experimental part:
Compounds were tested using a bromoKdELECT assay. T7 phage strains displaying bromodomains were grown in parallel in 24-well blocks in an E. coli host derived from the BL21 strain. E. coli were grown to log-phase and infected with T7 phage from a frozen stock (multiplicity of infection=0.4) and incubated with shaking at 32° C. until lysis (90-150 minutes). The lysates were centrifuged (5,000×g) and filtered ([…]) to remove cell debris. Streptavidin-coated magnetic beads were treated with biotinylated small molecule or acetylated peptide ligands for 30 minutes at room temperature to generate affinity resins for bromodomain assays. The liganded beads were blocked with excess biotin and washed with blocking buffer (SeaBlock (Pierce), 1% BSA, 0.05% Tween 20, 1 mM DTT) to remove unbound ligand and to reduce nonspecific phage binding. Binding reactions were assembled by combining bromodomains, liganded affinity beads, and test compounds in 1× binding buffer (17% SeaBlock, 0.33×PBS, 0.04% Tween 20, 0.02% BSA, 0.004% Sodium azide, 7.4 mM DTT). Test compounds were prepared as 1000× stocks in 100% DMSO. Kds were determined using an 11-point 3-fold compound dilution series with one DMSO control point. All compounds for Kd measurements are distributed by acoustic transfer (non-contact dispensing) in 100% DMSO. The compounds were then diluted directly into the assays such that the final concentration of DMSO was 0.09%. All reactions performed in polypropylene 384-well plates. Each was a final volume of 0.02 ml. The assay plates were incubated at room temperature with shaking for 1 hour and the affinity beads were washed with wash buffer (1×PBS, 0.05% Tween 20). The beads were then resuspended in elution buffer (1×PBS, 0.05% Tween […] non-biotinylated affinity ligand) and incubated at room temperature with shaking for 30 minutes. The bromodomain concentration in the eluates was measured by qPCR.

What is called GI50 is the concentration that inhibits growth by half. A lower GI50 goes with more potent growth inhibition. The compound `Cc1sc2c(c1C)C(c1ccc(Cl)cc1)=N[C@@H](CC(=O)NCCOC1CCN(c3ccc(C(=O)N[C@H]4CC[C@H](Oc5ccc(C#N)c(Cl)c5)CC4)nn3)CC1)c1nnc(C)n1-2` [I-1, N-[4-(3-chloro-4-cyano-phenoxy)cyclohexyl]-6-[4-[2-[[2-[(9S)-7-(4-chlorophenyl)-4,5,13-trimethyl-3-thia-1,8,11,12-tetrazatricyclo[8.3.0.0^2,6]trideca-2(6),4,7,10,12-pentaen-9-yl]acetyl]amino]ethoxy]-1-piperidyl]pyridazine-3-carboxamide] had a GI50 in assay [1] of 500 to 1500 nM.
By Kd is commonly meant a measure of binding affinity in units of concentration. A higher Kd goes with lower affinity. On to `Cc1sc2c(c1C)C(c1ccc(Cl)cc1)=N[C@@H](CC(=O)NCCOCCOCCOC1CCN(c3ccc(C(=O)N[C@H]4CC[C@H](Oc5ccc(C#N)c(Cl)c5)CC4)nn3)CC1)c1nnc(C)n1-2` [I-2, N-[4-(3-chloro-4-cyano-phenoxy)cyclohexyl]-6-[4-[2-[2-[2-[[2-[(9S)-7-(4-chlorophenyl)-4,5,13-trimethyl-3-thia-1,8,11,12-tetrazatricyclo[8.3.0.0^2,6]trideca-2(6),4,7,10,12-pentaen-9-yl]acetyl]amino]ethoxy]ethoxy]ethoxy]-1-piperidyl]pyridazine-3-carboxamide], for which the GI50 in assay [1] is < 500 nM. Also, the Kd in assay [2] lay in the range of 50 to 500 nM.
With `CCNC(=O)C[C@@H]1N=C(c2ccc(OCCOC3CCN(c4ccc(C(=O)N[C@H]5CC[C@H](Oc6ccc(C#N)c(Cl)c6)CC5)nn4)CC3)cc2)c2c(sc(C)c2C)-n2c(C)nnc21` [I-8], the GI50 in assay [1] is < 500 nM.
The same measure, in the same setting: next, `CCNC(=O)C[C@@H]1N=C(c2ccc(OCCOCCOC3CCN(c4ccc(C(=O)N[C@H]5CC[C@H](Oc6ccc(C#N)c(Cl)c6)CC5)nn4)CC3)cc2)c2c(sc(C)c2C)-n2c(C)nnc21` [I-10]: < 500 nM.
On to `CCNC(=O)C[C@@H]1N=C(c2ccc(CCCOC3CCN(c4ccc(C(=O)N[C@H]5CC[C@H](Oc6ccc(C#N)c(Cl)c6)CC5)nn4)CC3)cc2)c2c(sc(C)c2C)-n2c(C)nnc21` [I-17], for which the dissociation constant Kd in assay [3] was < 50 nM. Also, in assay [1], the GI50 is < 500 nM.
The corresponding values for `CCNC(=O)C[C@@H]1N=C(c2ccc(CC3CCN(c4ccc(C(=O)N[C@H]5CC[C@H](Oc6ccc(C#N)c(Cl)c6)CC5)nn4)CC3)cc2)c2c(sc(C)c2C)-n2c(C)nnc21` [I-20] are 50 to 500 nM and < 500 nM.
The corresponding values for `CCNC(=O)C[C@@H]1N=C(c2ccc(N3CC4(C3)CN(c3ccc(C(=O)N[C@H]5CC[C@H](Oc6ccc(C#N)c(Cl)c6)CC5)nn3)C4)cc2)c2c(sc(C)c2C)-n2c(C)nnc21` [I-24] are 50 to 500 nM and 500 to 1500 nM.
With `CCNC(=O)C[C@@H]1N=C(c2ccc(OCC3CN(c4ccc(C(=O)N[C@H]5CC[C@H](Oc6ccc(C#N)c(Cl)c6)CC5)nn4)C3)cc2)c2c(sc(C)c2C)-n2c(C)nnc21` [I-29], the GI50 in assay [1] is < 500 nM. Besides, the Kd in assay [2] lay within 50 to 500 nM.
Take `CCNC(=O)C[C@@H]1N=C(c2ccc(N3CCC(OC4CCN(c5ccc(C(=O)N[C@H]6CC[C@H](Oc7ccc(C#N)c(Cl)c7)CC6)nn5)CC4)CC3)cc2)c2c(sc(C)c2C)-n2c(C)nnc21` [I-44]: the Kd in assay [3] and in assay [2] was 50 to 500 nM throughout. Also, the 50% growth inhibitory concentration (GI50) in assay [1] was < 500 nM.
Turning to `CCNC(=O)C[C@@H]1N=C(c2ccc(OCCCN(C)c3ccc(C(=O)N[C@H]4CC[C@H](Oc5ccc(C#N)c(Cl)c5)CC4)nn3)cc2)c2c(sc(C)c2C)-n2c(C)nnc21` [I-48], in assay [1], the concentration for 50% growth inhibition (GI50) is < 500 nM.
